From patent US12012417B2, “N-substituted tetrahydrothienopyridine derivatives and uses thereof” (NOVARTIS AG, priority 2018, dated 2024)
Counter-ions that a name gives are not always drawn.

Tests used:
[1] = test system: DENV-2 (strain TSV01); experiment: Antiviral in vivo efficacy in dengue mouse model; settings: oral gavage, 3 consecutive days, AG129 mice, qRT-PCR
Experimental: Antiviral In Vivo Efficacy in Dengue Mouse Model
AG129 mice (lacking IFN-α/β and IFN-γ receptors, (Schul, W. et al. 2007. J. Infect. Dis., 195, 665-74)) was obtained from Biological Resource Center (BRC), Singapore. Male and female AG129 mice aged 8 to 14 weeks (weighed 20-30 grams, n=6 per group) were used. Infection of DENV-2 (strain TSV01) was given intraperitoneally (500 μL, 1.4×10^7 pfu/mL). The DENV-2 strain TSVO1 was used in the mouse model and was propagated in C6/36 mosquito cells. Compounds were formulated (% w/w) in either 0.5% methylcellulose, 0.5% Tween and 99.0% deionized water or 20% polyethylene glycol (PEG300), 10% Cremophor RH40, and 70% 100 mM pH 3 citrate buffer (% v/v). Compounds were dosed immediately after infection through oral gavage for 3 consecutive days. Terminal blood sample (anticoagulant: K2EDTA) was obtained for viremia read-out by qRT-PCR as previously described (Santiago, G. A., et al. 2013. PLoS Negl. Trop. Dis., 7, e2311).

[2] = test system: Dengue 1 virus MY97-10245; experiment: High-content imaging cell-based flavivirus immunodetection (HCl-CFI) assay, Dengue 1; settings: for EC50: Dengue virus, A549, 48 h, read-out: Dengue 1 virus MY97-10245 in A549 using HCl [Inhibitor/IC50] Qualified AC50
[3] = test system: Dengue 2 virus MY97-10340; experiment: High-content imaging cell-based flavivirus immunodetection (HCl-CFI) assay, Dengue 2; settings: for EC50: Dengue virus, A549, 48 h, read-out: Dengue 2 virus MY97-10340 in A549 using HCl [Inhibitor/IC50] Qualified AC50, A549 cells, MOI 0.3, 48 h, viral E protein expression
Procedure, shortened: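 A549 cells infected at MOI 0.3, treated with 3-fold, 10-point compound dilutions for 48 h. After paraformaldehyde fixation, viral E protein immunostained with 4G2 antibody and nuclei counterstained; imaged by high-content imaging. EC50 = concentration reducing E protein expression by 50%, from dose-response curves.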

[4] = test system: Dengue 3 virus MY05-34640-WT-C6/36; experiment: High-content imaging cell-based flavivirus immunodetection (HCl-CFI) assay, Dengue 3; settings: for EC50: Dengue virus, A549, 48 h, read-out: Dengue 3 virus MY05-34640-WT-C6/36 in A549 using HCl [Inhibitor/IC50] Qualified AC50
[5] = test system: Dengue 4 virus MY01-22713; experiment: High-content imaging cell-based flavivirus immunodetection (HCl-CFI) assay, Dengue 4; settings: for EC50: Dengue virus, A549, 48 h, read-out: Dengue 4 virus MY01-22713 in A549 using HCl [Inhibitor/IC50] Qualified AC50, A549 cells, 48 h, viral E protein expression
[6] = A549 cells, 48 h, viral E protein expression

SMILES | Log DENV-2 viremia reduction ([1]; 30 mg/kg b.i.d.) | Log DENV-2 viremia reduction ([1]; 100 mg/kg q.d.) | EC50 [2] | EC50 [3] | EC50 [4] | EC50 [5] | Dengue 1 virus MY97-10245 in A549 using HCl [Inhibitor/IC50] Qualified AC50 [2, 6] | Dengue 2 virus MY97-10340 in A549 using HCl [Inhibitor/IC50] Qualified AC50 ([3]; A549 cells, MOI 0.3, 48 h, viral E protein expression) | Dengue 3 virus MY05-34640-WT-C6/36 in A549 using HCl [Inhibitor/IC50] Qualified AC50 [4, 6] | Dengue 4 virus MY01-22713 in A549 using HCl [Inhibitor/IC50] Qualified AC50 [5, 6]
COc1cc(CC(=O)Nc2sc3c(c2C#N)CN(CC2CCCCC2)CC3)ccc1S(N)(=O)=O [Example 83, N-(3-cyano-5-(cyclohexylmethyl)-4,5,6,7-tetrahydrothieno[3,2-c]pyridin-2-yl)-2-(3-methoxy-4-sulfamoylphenyl)acetamide] | 0.60 Log | 0.94 Log | – | – | – | – | – | – | – | –
N#Cc1c(NC(=O)Cc2ccc(S(=O)(=O)C(F)F)cc2)sc2c1CN(CC1CCCCC1)CC2 [Example 11, N-(3-cyano-5-(cyclohexylmethyl)-4,5,6,7-tetrahydrothieno[3,2-c]pyridin-2-yl)-2-(4-((difluoromethyl)sulfonyl)phenyl)acetamide] | – | – | < 100 nM | 100 to 1000 nM | < 100 nM | < 100 nM | – | – | – | –
COc1cccc(CC(=O)Nc2sc3c(c2C#N)CN(Cc2cccc(F)c2)CC3)c1F [Example 40, N-(3-cyano-5-(3-fluorobenzyl)-4,5,6,7-tetrahydrothieno[3,2-c]pyridin-2-yl)-2-(2-fluoro-3-methoxyphenyl)acetamide] | – | – | > 1000 nM | 100 to 1000 nM | 100 to 1000 nM | 100 to 1000 nM | – | – | – | –
CC1Cc2sc(NC(=O)Cc3ccc(S(N)(=O)=O)cc3)c(C#N)c2CN1CC1CC(F)(F)C1 (stereo not shown) [Example 56, N-(3-cyano-5-((3,3-difluorocyclobutyl)methyl)-6-methyl-4,5,6,7-tetrahydrothieno[3,2-c]pyridin-2-yl)-2-(4-sulfamoylphenyl)acetamide] | – | – | > 1000 nM | 100 to 1000 nM | 100 to 1000 nM | < 100 nM | – | – | – | –
Cc1cc(C)cc(CN2CCc3c(sc(NC(=O)Cc4ccc(S(N)(=O)=O)cc4)c3C#N)C2)c1 [Example 110, N-(3-cyano-6-(3,5-dimethylbenzyl)-4,5,6,7-tetrahydrothieno[2,3-c]pyridin-2-yl)-2-(4-sulfamoylphenyl)acetamide] | – | – | 100 to 1000 nM | < 100 nM | < 100 nM | < 100 nM | – | – | – | –
CC1Cc2sc(NC(=O)Cc3ccc(S(N)(=O)=O)cc3)c(C#N)c2CN1CC1CCCC1 (stereo not shown) [Example 59, N-(3-cyano-5-(cyclopentylmethyl)-6-methyl-4,5,6,7-tetrahydrothieno[3,2-c]pyridin-2-yl)-2-(4-sulfamoylphenyl)acetamide hydrochloride] | – | – | > 1000 nM | 100 to 1000 nM | 100 to 1000 nM | 100 to 1000 nM | – | – | – | –
N#Cc1c(NC(=O)Cc2ccc(S(N)(=O)=O)cc2)sc2c1CCCN(Cc1cccc(F)c1)C2 [Example 126, N-(3-cyano-7-(3-fluorobenzyl)-5,6,7,8-tetrahydro-4H-thieno[2,3-c]azepin-2-yl)-2-(4-sulfamoylphenyl)acetamide] | – | – | 100 to 1000 nM | 100 to 1000 nM | 100 to 1000 nM | < 100 nM | – | – | – | –
COc1cc(CC(=O)Nc2sc3c(c2C#N)CN(Cc2cccc(F)c2)CC3)ccc1S(N)(=O)=O [Example 22, N-(3-cyano-5-(3-fluorobenzyl)-4,5,6,7-tetrahydrothieno[3,2-c]pyridin-2-yl)-2-(3-methoxy-4-sulfamoylphenyl)acetamide] | – | – | 100 to 1000 nM | < 100 nM | < 100 nM | < 100 nM | – | – | – | –
CC1Cc2c(sc(NC(=O)Cc3ccc(S(N)(=O)=O)cc3)c2C#N)CN1Cc1cccc(F)c1 (stereo not shown) [Example 123, N-(3-cyano-6-(3-fluorobenzyl)-5-methyl-4,5,6,7-tetrahydrothieno[2,3-c]pyridin-2-yl)-2-(4-sulfamoylphenyl)acetamide] | – | – | – | – | – | – | + (±≥1 μM) | ++ (1 μM>++≥0.1 μM) | ++ (1 μM>++≥0.1 μM) | ++ (1 μM>++≥0.1 μM)
CC1Cc2sc(NC(=O)Cc3ccc(S(N)(=O)=O)cc3)c(C#N)c2CN1CC1CCCCC1 (stereo not shown) [Example 62, N-(3-cyano-5-(cyclohexylmethyl)-6-methyl-4,5,6,7-tetrahydrothieno[3,2-c]pyridin-2-yl)-2-(4-sulfamoylphenyl)acetamide] | – | – | 100 to 1000 nM | < 100 nM | < 100 nM | < 100 nM | – | – | – | –
Cc1ccccc1CN1CCc2c(sc(NC(=O)Cc3ccc(S(N)(=O)=O)cc3)c2C#N)C1 [Example 97, N-(3-cyano-6-(2-methylbenzyl)-4,5,6,7-tetrahydrothieno[2,3-c]pyridin-2-yl)-2-(4-sulfamoylphenyl)acetamide] | – | – | 100 to 1000 nM | 100 to 1000 nM | 100 to 1000 nM | 100 to 1000 nM | – | – | – | –
CS(=O)(=O)c1ccc(CC(=O)Nc2sc3c(c2C#N)CN(Cc2cccc(F)c2)CC3)cc1C#N [Example 27, 2-(3-cyano-4-(methylsulfonyl)phenyl)-N-(3-cyano-5-(3-fluorobenzyl)-4,5,6,7-tetrahydrothieno[3,2-c]pyridin-2-yl)acetamide] | – | – | 100 to 1000 nM | < 100 nM | < 100 nM | < 100 nM | – | – | – | –
Cc1cccc(CN2CCc3c(sc(NC(=O)Cc4ccc(S(N)(=O)=O)cc4)c3C#N)C2)c1F [Example 115, N-(3-cyano-6-(2-fluoro-3-methylbenzyl)-4,5,6,7-tetrahydrothieno[2,3-c]pyridin-2-yl)-2-(4-sulfamoylphenyl)acetamide] | – | – | 100 to 1000 nM | < 100 nM | < 100 nM | < 100 nM | – | – | – | –
N#Cc1c(NC(=O)Cc2ccc(S(=O)(=O)C(F)F)cc2)sc2c1CN(Cc1cccc(F)c1)CC2 [Example 45, N-(3-cyano-5-(3-fluorobenzyl)-4,5,6,7-tetrahydrothieno[3,2-c]pyridin-2-yl)-2-(4-((difluoromethyl)sulfonyl)phenyl)acetamide] | – | – | > 1000 nM | > 1000 nM | 100 to 1000 nM | 100 to 1000 nM | – | – | – | –
Cc1cccc(CN2CCc3c(sc(NC(=O)Cc4ccc(S(N)(=O)=O)cc4)c3C#N)C2)c1 [Example 102, N-(3-cyano-6-(3-methylbenzyl)-4,5,6,7-tetrahydrothieno[2,3-c]pyridin-2-yl)-2-(4-sulfamoylphenyl)acetamide] | – | – | > 1000 nM | 100 to 1000 nM | 100 to 1000 nM | 100 to 1000 nM | – | – | – | –
CS(=O)(=O)Cc1ccc(CC(=O)Nc2sc3c(c2C#N)CN(Cc2cccc(F)c2)CC3)cc1 [Example 32, N-(3-cyano-5-(3-fluorobenzyl)-4,5,6,7-tetrahydrothieno[3,2-c]pyridin-2-yl)-2-(4-((methylsulfonyl)methyl)phenyl)acetamide] | – | – | 100 to 1000 nM | 100 to 1000 nM | < 100 nM | < 100 nM | – | – | – | –
N#Cc1c(NC(=O)Cc2ccc(S(N)(=O)=O)cc2)sc2c1CCN(Cc1cc(F)ccc1F)C2 [Example 113, N-(3-cyano-6-(2,5-difluorobenzyl)-4,5,6,7-tetrahydrothieno[2,3-c]pyridin-2-yl)-2-(4-sulfamoylphenyl)acetamide] | – | – | 100 to 1000 nM | < 100 nM | < 100 nM | < 100 nM | – | – | – | –
N#Cc1c(NC(=O)Cc2ccc(S(N)(=O)=O)cc2)sc2c1CCN(Cc1ccc(F)cc1)C2 [Example 101, N-(3-cyano-6-(4-fluorobenzyl)-4,5,6,7-tetrahydrothieno[2,3-c]pyridin-2-yl)-2-(4-sulfamoylphenyl)acetamide] | – | – | 100 to 1000 nM | 100 to 1000 nM | 100 to 1000 nM | < 100 nM | – | – | – | –
COc1cc(CC(=O)Nc2sc3c(c2C#N)CN(CC2CCCCC2)CC3)ccc1S(N)(=O)=O [Example 7, N-(3-cyano-5-(cyclohexylmethyl)-4,5,6,7-tetrahydrothieno[3,2-c]pyridin-2-yl)-2-(3-methoxy-4-sulfamoylphenyl)acetamide] | – | – | < 100 nM | < 100 nM | < 100 nM | < 100 nM | – | – | – | –
CS(=O)(=O)Nc1ccc(CC(=O)Nc2sc3c(c2C#N)CN(CC2CCCCC2)CC3)cc1 [Example 13, N-(3-cyano-5-(cyclohexylmethyl)-4,5,6,7-tetrahydrothieno[3,2-c]pyridin-2-yl)-2-(4-(methylsulfonamido)phenyl)acetamide] | – | – | 100 to 1000 nM | 100 to 1000 nM | 100 to 1000 nM | 100 to 1000 nM | – | – | – | –
COc1cc(S(N)(=O)=O)ccc1CC(=O)Nc1sc2c(c1C#N)CN(CC1CCCCC1)CC2 [Example 19, N-(3-cyano-5-(cyclohexylmethyl)-4,5,6,7-tetrahydrothieno[3,2-c]pyridin-2-yl)-2-(2-methoxy-4-sulfamoylphenyl)acetamide] | – | – | < 100 nM | < 100 nM | < 100 nM | < 100 nM | – | – | – | –
